The values that follow are results of earlier work, collected in patent US7473685B2, “Process for preparation of chemically stable, dry-flow, low compact, dust free, soluble granules of phosphoroamidothioates” (United Phosphorus, Ltd., priority 2001, dated 2009).

Each structure is given as a SMILES string.

For the series, the system named is aphids, leaf-miners, lepidopterous, larvae, sawflies and thrips. The note with it: systemic and contact insecticide of moderate persistence.

Consider `COP(=O)(NC(C)=O)SC` (stereo not shown) [Acephate], for which the residual activity lasting is 10 to 15 days.
